In PubChem BioAssay (NCI):
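Where inhibition never reached the appropriate level, the endpoint shown equals the highest concentration tested. Otherwise, values were interpolated linearly from a five-concentration, 48-hour dose response in 96-well plates. GI50 = concentration required for 50% inhibition of growth. At the TGI there is no net growth.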

How the values were obtained:
Experiment in all cases: NCI tumour cell line growth inhibition, 48 h; in the data active = GI50 below about 0.43 µM; inactive = the rest
786-0 renal = test system: 786-0 renal
A498 renal = test system: A498 renal
A549 NSCLC = test system: A549 NSCLC
ACHN renal = test system: ACHN renal
BT-549 breast = test system: BT-549 breast
CAKI-1 renal = test system: CAKI-1 renal
CCRF-CEM leukemia = test system: CCRF-CEM leukemia
COLO 205 colon = test system: COLO 205 colon
DU-145 prostate = test system: DU-145 prostate
EKVX NSCLC = test system: EKVX NSCLC
HCC-2998 colon = test system: HCC-2998 colon
HCT-116 colon = test system: HCT-116 colon
HCT-15 colon = test system: HCT-15 colon
HL-60(TB) leukemia = test system: HL-60(TB) leukemia
HOP-62 NSCLC = test system: HOP-62 NSCLC
HOP-92 NSCLC = test system: HOP-92 NSCLC
HS 578T breast = test system: HS 578T breast
HT29 colon = test system: HT29 colon
IGROV1 ovarian = test system: IGROV1 ovarian
K-562 leukemia = test system: K-562 leukemia
KM12 colon = test system: KM12 colon
LOX IMVI melanoma = test system: LOX IMVI melanoma
M14 melanoma = test system: M14 melanoma
MALME-3M melanoma = test system: MALME-3M melanoma
MCF7 breast = test system: MCF7 breast
MDA-MB-231 breast = test system: MDA-MB-231 breast
MDA-MB-435 = test system: MDA-MB-435
MOLT-4 leukemia = test system: MOLT-4 leukemia
NCI-H226 lung = test system: NCI-H226 lung
NCI-H23 lung = test system: NCI-H23 lung
NCI-H460 lung = test system: NCI-H460 lung
NCI-H522 lung = test system: NCI-H522 lung
NCI/ADR-RES ovarian = test system: NCI/ADR-RES ovarian
OVCAR-3 ovarian = test system: OVCAR-3 ovarian
OVCAR-4 ovarian = test system: OVCAR-4 ovarian
OVCAR-5 ovarian = test system: OVCAR-5 ovarian
OVCAR-8 ovarian = test system: OVCAR-8 ovarian
PC-3 prostate = test system: PC-3 prostate
RPMI-8226 leukemia = test system: RPMI-8226 leukemia
RXF 393 renal = test system: RXF 393 renal
SF-268 CNS = test system: SF-268 CNS
SF-295 CNS = test system: SF-295 CNS
SF-539 CNS = test system: SF-539 CNS
SK-MEL-2 melanoma = test system: SK-MEL-2 melanoma
SK-MEL-28 melanoma = test system: SK-MEL-28 melanoma
SK-MEL-5 melanoma = test system: SK-MEL-5 melanoma
SK-OV-3 ovarian = test system: SK-OV-3 ovarian
SN12C renal = test system: SN12C renal
SNB-19 CNS = test system: SNB-19 CNS
SNB-75 CNS = test system: SNB-75 CNS
SW-620 colon = test system: SW-620 colon
T-47D breast = test system: T-47D breast
TK-10 renal = test system: TK-10 renal
U251 CNS = test system: U251 CNS
UACC-257 melanoma = test system: UACC-257 melanoma
UACC-62 melanoma = test system: UACC-62 melanoma
UO-31 renal = test system: UO-31 renal
SR leukemia = test system: SR leukemia

COc1cc(C[C@H]2COC(=O)[C@]2(O)Cc2ccc(OCc3ccccc3)c(OC)c2)ccc1OCc1ccccc1
24.1 µM: TGI (COLO 205 colon)
> 100 µM: TGI (786-0 renal) | TGI (A549 NSCLC) | TGI (ACHN renal) | TGI (BT-549 breast) | TGI (CAKI-1 renal) | TGI (CCRF-CEM leukemia) | TGI (DU-145 prostate) | TGI (EKVX NSCLC) | TGI (HCC-2998 colon) | TGI (HCT-116 colon) | TGI (HCT-15 colon) | TGI (HL-60(TB) leukemia) | TGI (HOP-62 NSCLC) | TGI (HOP-92 NSCLC) | TGI (HS 578T breast) | TGI (HT29 colon) | TGI (IGROV1 ovarian) | TGI (K-562 leukemia) | TGI (KM12 colon) | TGI (LOX IMVI melanoma) | TGI (M14 melanoma) | TGI (MCF7 breast) | TGI (MDA-MB-231 breast) | TGI (MDA-MB-435) | TGI (MOLT-4 leukemia) | TGI (NCI-H226 lung) | TGI (NCI-H23 lung) | TGI (NCI-H460 lung) | TGI (NCI-H522 lung) | TGI (NCI/ADR-RES ovarian) | TGI (OVCAR-3 ovarian) | TGI (OVCAR-4 ovarian) | TGI (OVCAR-5 ovarian) | TGI (OVCAR-8 ovarian) | TGI (PC-3 prostate) | TGI (RPMI-8226 leukemia) | TGI (RXF 393 renal) | TGI (SF-268 CNS) | TGI (SF-295 CNS) | TGI (SF-539 CNS) | TGI (SK-MEL-2 melanoma) | TGI (SK-MEL-28 melanoma) | TGI (SK-OV-3 ovarian) | TGI (SN12C renal) | TGI (SNB-19 CNS) | TGI (SNB-75 CNS) | TGI (SW-620 colon) | TGI (T-47D breast) | TGI (TK-10 renal) | TGI (U251 CNS) | TGI (UACC-257 melanoma) | TGI (UACC-62 melanoma) | TGI (UO-31 renal)
87.3 µM: TGI (MALME-3M melanoma)
inactive: GI50 (786-0 renal) 85.4 µM | GI50 (A498 renal) 27.5 µM | GI50 (A549 NSCLC) 7.13 µM | GI50 (ACHN renal) 26.1 µM | GI50 (BT-549 breast) 28.1 µM | GI50 (CAKI-1 renal) 19.4 µM | GI50 (CCRF-CEM leukemia) > 100 µM | GI50 (COLO 205 colon) 5.16 µM | GI50 (DU-145 prostate) 85.9 µM | GI50 (EKVX NSCLC) 24.2 µM | GI50 (HCC-2998 colon) 26.5 µM | GI50 (HCT-116 colon) 16.8 µM | GI50 (HCT-15 colon) 19 µM | GI50 (HL-60(TB) leukemia) 28 µM | GI50 (HOP-62 NSCLC) > 100 µM | GI50 (HOP-92 NSCLC) > 100 µM | GI50 (HS 578T breast) 42.9 µM | GI50 (HT29 colon) 4.16 µM | GI50 (IGROV1 ovarian) > 100 µM | GI50 (K-562 leukemia) 62.3 µM | GI50 (KM12 colon) 7.3 µM | GI50 (LOX IMVI melanoma) 35.9 µM | GI50 (M14 melanoma) 47 µM | GI50 (MALME-3M melanoma) 8.33 µM | GI50 (MCF7 breast) 8.17 µM | GI50 (MDA-MB-231 breast) > 100 µM | GI50 (MDA-MB-435) 20.9 µM | GI50 (MOLT-4 leukemia) 6.2 µM | GI50 (NCI-H226 lung) 33.7 µM | GI50 (NCI-H23 lung) 30.6 µM | GI50 (NCI-H460 lung) 9.77 µM | GI50 (NCI-H522 lung) 65.2 µM | GI50 (NCI/ADR-RES ovarian) 5.18 µM | GI50 (OVCAR-3 ovarian) > 100 µM | GI50 (OVCAR-4 ovarian) > 100 µM | GI50 (OVCAR-5 ovarian) > 100 µM | GI50 (OVCAR-8 ovarian) 12.3 µM | GI50 (PC-3 prostate) 74.7 µM | GI50 (RPMI-8226 leukemia) 71.9 µM | GI50 (RXF 393 renal) 40.3 µM | GI50 (SF-268 CNS) 73.7 µM | GI50 (SF-295 CNS) 18.9 µM | GI50 (SF-539 CNS) 37.6 µM | GI50 (SK-MEL-2 melanoma) > 100 µM | GI50 (SK-MEL-28 melanoma) > 100 µM | GI50 (SK-MEL-5 melanoma) 13.7 µM | GI50 (SK-OV-3 ovarian) > 100 µM | GI50 (SN12C renal) 12.5 µM | GI50 (SNB-19 CNS) > 100 µM | GI50 (SNB-75 CNS) > 100 µM | GI50 (SW-620 colon) > 100 µM | GI50 (T-47D breast) 12.1 µM | GI50 (TK-10 renal) 26.7 µM | GI50 (U251 CNS) 23.9 µM | GI50 (UACC-257 melanoma) 16 µM | GI50 (UACC-62 melanoma) 40.5 µM | GI50 (UO-31 renal) 35.5 µM
37.1 µM: TGI (SK-MEL-5 melanoma)
99.1 µM: TGI (A498 renal)

COc1ccc(Cn2cc3c(c2-c2ccccc2)CCc2cnoc2-3)cc1
> 100 µM: TGI (A549 NSCLC) | TGI (ACHN renal) | TGI (BT-549 breast) | TGI (CAKI-1 renal) | TGI (CCRF-CEM leukemia) | TGI (EKVX NSCLC) | TGI (HCT-15 colon) | TGI (HOP-92 NSCLC) | TGI (IGROV1 ovarian) | TGI (K-562 leukemia) | TGI (LOX IMVI melanoma) | TGI (M14 melanoma) | TGI (MCF7 breast) | TGI (MDA-MB-231 breast) | TGI (MDA-MB-435) | TGI (NCI-H226 lung) | TGI (NCI-H23 lung) | TGI (OVCAR-4 ovarian) | TGI (OVCAR-5 ovarian) | TGI (OVCAR-8 ovarian) | TGI (PC-3 prostate) | TGI (SF-268 CNS) | TGI (SF-295 CNS) | TGI (SK-MEL-2 melanoma) | TGI (SK-MEL-28 melanoma) | TGI (SK-OV-3 ovarian) | TGI (SN12C renal) | TGI (SNB-19 CNS) | TGI (SNB-75 CNS) | TGI (SW-620 colon) | TGI (T-47D breast) | TGI (TK-10 renal) | TGI (U251 CNS) | TGI (UACC-257 melanoma) | TGI (UACC-62 melanoma) | TGI (UO-31 renal)
active: GI50 (786-0 renal) 0.243 µM | GI50 (A498 renal) 0.209 µM | GI50 (A549 NSCLC) 0.293 µM | GI50 (ACHN renal) 0.215 µM | GI50 (BT-549 breast) 0.389 µM | GI50 (CAKI-1 renal) 0.0883 µM | GI50 (CCRF-CEM leukemia) 0.251 µM | GI50 (COLO 205 colon) 0.125 µM | GI50 (DU-145 prostate) 0.359 µM | GI50 (EKVX NSCLC) 0.425 µM | GI50 (HCC-2998 colon) 0.209 µM | GI50 (HCT-116 colon) 0.0904 µM | GI50 (HCT-15 colon) 0.127 µM | GI50 (HL-60(TB) leukemia) 0.133 µM | GI50 (HOP-62 NSCLC) 0.279 µM | GI50 (HS 578T breast) 0.183 µM | GI50 (HT29 colon) 0.0797 µM | GI50 (IGROV1 ovarian) 0.114 µM | GI50 (K-562 leukemia) 0.0404 µM | GI50 (KM12 colon) 0.103 µM | GI50 (LOX IMVI melanoma) 0.38 µM | GI50 (M14 melanoma) 0.155 µM | GI50 (MCF7 breast) 0.0391 µM | GI50 (MDA-MB-231 breast) 0.37 µM | GI50 (MDA-MB-435) 0.0311 µM | GI50 (MOLT-4 leukemia) 0.361 µM | GI50 (NCI-H23 lung) 0.234 µM | GI50 (NCI-H460 lung) 0.25 µM | GI50 (NCI-H522 lung) 0.0327 µM | GI50 (NCI/ADR-RES ovarian) 0.0462 µM | GI50 (OVCAR-3 ovarian) 0.137 µM | GI50 (OVCAR-8 ovarian) 0.416 µM | GI50 (PC-3 prostate) 0.096 µM | GI50 (RPMI-8226 leukemia) 0.167 µM | GI50 (SF-295 CNS) 0.0652 µM | GI50 (SF-539 CNS) 0.149 µM | GI50 (SK-MEL-5 melanoma) 0.0479 µM | GI50 (SK-OV-3 ovarian) 0.226 µM | GI50 (SNB-19 CNS) 0.351 µM | GI50 (SNB-75 CNS) 0.165 µM | GI50 (SR leukemia) 0.0574 µM | GI50 (SW-620 colon) 0.113 µM | GI50 (U251 CNS) 0.264 µM | GI50 (UACC-62 melanoma) 0.0461 µM
0.389 µM: TGI (HL-60(TB) leukemia)
3.16 µM: TGI (SR leukemia)
2.57 µM: TGI (DU-145 prostate)
> 48.5 µM: TGI (HOP-62 NSCLC)
0.509 µM: TGI (OVCAR-3 ovarian)
inactive: GI50 (HOP-92 NSCLC) 3.31 µM | GI50 (NCI-H226 lung) 0.476 µM | GI50 (OVCAR-4 ovarian) 0.47 µM | GI50 (OVCAR-5 ovarian) 0.505 µM | GI50 (SF-268 CNS) 0.488 µM | GI50 (SK-MEL-2 melanoma) 2.79 µM | GI50 (SK-MEL-28 melanoma) 33.9 µM | GI50 (SN12C renal) 0.545 µM | GI50 (T-47D breast) 1.32 µM | GI50 (TK-10 renal) > 34.5 µM | GI50 (UACC-257 melanoma) 27.4 µM | GI50 (UO-31 renal) 0.677 µM
1.15 µM: TGI (NCI-H522 lung)
0.905 µM: TGI (HCC-2998 colon)
> 95.5 µM: TGI (A498 renal)
2.97 µM: TGI (KM12 colon)
0.504 µM: TGI (SK-MEL-5 melanoma)
0.394 µM: TGI (COLO 205 colon)
4.38 µM: TGI (MOLT-4 leukemia)
2.12 µM: TGI (NCI-H460 lung)
0.49 µM: TGI (SF-539 CNS)
0.501 µM: TGI (RPMI-8226 leukemia)
11.9 µM: TGI (NCI/ADR-RES ovarian)
1.58 µM: TGI (HT29 colon)
